Assay results reported in US20030095958A1, “Inhibitors of bace” (priority 2001, published 2003).

Target: BACE (Homo sapiens, UniProt P56817)
Test: Ki Determination for the Inhibition of BACE (FS-1 peptide fluorescence cleavage assay)
Type: biochemical
Settings: apparent Ki; 50 nM BACE, 10 μM FS-1 substrate, 0.1M sodium acetate pH 4.5
Summary of the method: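 Human BACE (50 nM) was preincubated 15 min at room temperature with compound (2% DMSO) in 0.1 M sodium acetate pH 4.5, then 10 μM FS-1 peptide was added. Cleavage was followed by fluorescence (ex 355/em 495 nm), and apparent Ki came from fitting to the integrated competitive tight-binding inhibition equation.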

BACE, sequence (P56817 46-501): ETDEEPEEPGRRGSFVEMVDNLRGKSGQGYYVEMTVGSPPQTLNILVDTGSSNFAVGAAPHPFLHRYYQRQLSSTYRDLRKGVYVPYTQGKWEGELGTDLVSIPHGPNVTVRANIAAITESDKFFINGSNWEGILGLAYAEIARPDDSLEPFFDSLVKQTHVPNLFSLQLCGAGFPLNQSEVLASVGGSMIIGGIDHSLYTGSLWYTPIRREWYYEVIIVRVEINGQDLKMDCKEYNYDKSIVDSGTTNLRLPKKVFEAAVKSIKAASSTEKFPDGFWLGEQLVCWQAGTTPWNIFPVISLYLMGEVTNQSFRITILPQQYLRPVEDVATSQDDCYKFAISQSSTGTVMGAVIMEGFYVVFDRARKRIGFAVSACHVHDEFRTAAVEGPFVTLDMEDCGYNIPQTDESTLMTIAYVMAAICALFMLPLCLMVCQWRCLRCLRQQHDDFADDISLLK

`O=C(NCC1CNCCC1c1ccc(COc2ccccc2C(F)(F)F)cc1)Oc1ccc2ccccc2c1` (stereo not drawn) [Compound 228, {4-[4-(2-Trifluoromethyl-phenoxymethyl)-phenyl]-piperidin-3-ylmethyl}-carbamic acid naphthalen-2-yl ester] and `O=C(NCC1CNCCC1c1ccc(COc2ccccc2C(F)(F)F)cc1)Nc1ccc2ccccc2c1` (stereo not drawn) [Compound 232, 1-Naphthalen-2-yl-3-{4-[4-(2-trifluoromethyl-phenoxymethyl)-phenyl]-piperidin-3-ylmethyl}-urea] cannot be ordered by Ki: < 3 µM for the first, < 3 µM for the second.

`Cc1c(COc2ccc3c(c2)c2c(n3C(=O)c3ccc4ccccc4c3)CNCC2)cccc1C(F)(F)F` [Compound 524, [6-(2-Methyl-3-trifluoromethyl-benzyloxy)-1,2,3,4-tetrahydro-b-carbolin-9-yl]-naphthalen-2-yl-methanone] and `O=C(c1ccc2ccccc2c1)n1c2c(c3cc(OCc4cccc(C(F)(F)F)c4)ccc31)CCNC2` [Compound 507, Naphthalen-2-yl-[6-(3-trifluoromethyl-benzyloxy)-1,2,3,4-tetrahydro-b-carbolin-9-yl]-methanone] cannot be ordered by Ki: < 3 µM for the first, < 3 µM for the second.

`O=[N+]([O-])c1cccc(-c2cc(COc3ccccc3C(F)(F)F)c(C3=CCNCC3)cc2COc2ccccc2C(F)(F)F)c1` [Compound 353, 4-[3′-Nitro-2,5-bis-(2-trifluoromethyl-phenoxymethyl)-biphenyl-4-yl]-1,2,3,6-tetrahydro-pyridine] and `NC(=O)c1cccc(-c2cc(COc3ccccc3C(F)(F)F)c(C3=CCNCC3)cc2COc2ccccc2C(F)(F)F)c1` [Compound 364, 4′-(1,2,3,6-Tetrahydro-pyridin-4-yl)-2′,5′-bis-(2-trifluoromethyl-phenoxymethyl)-biphenyl-3-carboxylic acid amide] cannot be ordered by Ki: < 3 µM for the first, < 3 µM for the second.

First: O=C(OCc1ccc(COc2ccccc2C(F)(F)F)cc1C1=CCNCC1)c1cccc2ccccc12 [Compound 312, Naphthalene-1-carboxylic acid 2-(1,2,3,6-tetrahydro-pyridin-4-yl)-4-(2-trifluoromethyl-phenoxymethyl)-benzyl ester]
Second: FC(F)(F)c1ccccc1OCc1ccc(COc2cccc3ccccc23)c(C2=CCNCC2)c1 [Compound 320, 4-[2-(Naphthalen-1-yloxymethyl)-5-(2-trifluoromethyl-phenoxymethyl)-phenyl]-1,2,3,6-tetrahydro-pyridine]
The Ki of the first is lower: < 3 µM for the first, 3 to 30 µM for the second.

`Cc1c(COc2ccc3c(c2)c2c(n3Cc3cccc4ccccc34)CNCC2)cccc1C(F)(F)F` [Compound 521, 6-(2-Methyl-3-trifluoromethyl-benzyloxy)-9-naphthalen-1-ylmethyl-2,3,4,9-tetrahydro-1H-b-carboline] and `FC(F)Oc1ccc(COc2ccc3c(c2)c2c(n3Cc3ccc4ccccc4c3)CNCC2)cc1` [Compound 513, 6-(4-Difluoromethoxy-benzyloxy)-9-naphthalen-2-ylmethyl-2,3,4,9-tetrahydro-1H-b-carboline] cannot be ordered by Ki: < 3 µM for the first, < 3 µM for the second.

`O=C1CCCc2c(OCc3ccc(COc4ccccc4C(F)(F)F)cc3C3=CCNCC3)cccc21` [Compound 331, 5-[2-(1,2,3,6-Tetrahydro-pyridin-4-yl)-4-(2-trifluoromethyl-phenoxymethyl)-benzyloxy]-3,4-dihydro-2H-naphthalen-1-one] and `Fc1ccccc1-c1cc(COc2ccccc2C(F)(F)F)c(C2=CCNCC2)cc1COc1ccccc1C(F)(F)F` [Compound 347, 4-[2′-Fluoro-2,5-bis-(2-trifluoromethyl-phenoxymethyl)-biphenyl-4-yl]-1,2,3,6-tetrahydro-pyridine] cannot be ordered by Ki: < 3 µM for the first, < 3 µM for the second.

`OCc1cc(C2=CCNCC2)c(COc2ccccc2C(F)(F)F)cc1-c1ccoc1` [Compound 387, [2-Furan-3-yl-5-(1,2,3,6-tetrahydro-pyridin-4-yl)-4-(2-trifluoromethyl-phenoxymethyl)-phenyl]-methanol] and `FC(F)(F)c1ccccc1OCc1cc(-c2ccoc2)ccc1C1=CCNCC1` [Compound 363, 4-[4-Furan-3-yl-2-(2-trifluoromethyl-phenoxymethyl)-phenyl]-1,2,3,6-tetrahydro-pyridine] fall in the same range of Ki: 3 to 30 µM for the first, 3 to 30 µM for the second.

`O=[N+]([O-])c1ccccc1-c1cc(COc2ccccc2C(F)(F)F)c(C2=CCNCC2)cc1COc1ccccc1C(F)(F)F` [Compound 344, 4-[2′-Nitro-2,5-bis-(2-trifluoromethyl-phenoxymethyl)-biphenyl-4-yl]-1,2,3,6-tetrahydro-pyridine] and `COC(=O)c1ccc(-c2cc(COc3ccccc3C(F)(F)F)c(C3=CCNCC3)cc2COc2ccccc2C(F)(F)F)cc1` [Compound 369, 4′-(1,2,3,6-Tetrahydro-pyridin-4-yl)-2′,5′-bis-(2-trifluoromethyl-phenoxymethyl)-biphenyl-4-carboxylic acid methyl ester] cannot be ordered by Ki: < 3 µM for the first, < 3 µM for the second.

`O=C(Nc1cc(F)c(Br)cc1N1CCNCC1)c1cccc2ccccc12` [Compound 157, Naphthalene-1-carboxylic acid (4-bromo-5-fluoro-2-piperazin-1-yl-phenyl)-amide] and `O=C(Nc1cc(Br)ccc1N1CCNCC1)c1cccc2ccccc12` [Compound 118, Naphthalene-1-carboxylic acid (5-bromo-2-piperazin-1-yl-phenyl)-amide] cannot be ordered by Ki: > 30 µM for the first, > 30 µM for the second.

`FC(F)(F)c1ccccc1OCc1ccc(COc2ccccc2C(F)(F)F)c(N2CCNCC2)c1` [Compound 116, 1-[2,5-Bis-(2-trifluoromethyl-phenoxymethyl)-phenyl]-piperazine] and `O=C(Nc1cc(-c2ccccc2)c(COc2ccccc2C(F)(F)F)cc1N1CCNCC1)c1nccc2ccccc12` [Compound 184, Isoquinoline-1-carboxylic acid [4-piperazin-1-yl-6-(2-trifluoromethyl-phenoxymethyl)-biphenyl-3-yl]-amide] cannot be ordered by Ki: < 3 µM for the first, < 3 µM for the second.

First: O=C(Nc1cc(C(F)(F)F)cc(NC(=O)c2ccc3ccccc3c2)c1N1CCNCC1)c1ccc2ccccc2c1 [Compound 115, 4-{2,6-Bis-[(naphthalene-2-carbonyl)-amino]-4-trifluoromethyl-phenyl}-piperazine]
Second: O=C(Nc1cc(C(F)(F)F)c(-c2ccc(C(F)(F)F)cc2)cc1N1CCNCC1)c1cccc2ccccc12 [Compound 170, Naphthalene-1-carboxylic acid (5-piperazin-1-yl-2,4′-bis-trifluoromethyl-biphenyl-4-yl)-amide]
The Ki of the first is higher: 3 to 30 µM for the first, < 3 µM for the second.

First: O=C(Nc1cc(C(F)(F)F)ccc1N1CCNCC1)c1cnc2ccccc2n1 [Compound 189, Quinoxaline-2-carboxylic acid (2-piperazin-1-yl-5-trifluoromethyl-phenyl)-amide]
Second: O=S(=O)(Nc1cc(C(F)(F)F)ccc1N1CCNCC1)c1ccc(-c2ccccc2C(F)(F)F)cc1 [Compound 172, 2′-Trifluoromethyl-biphenyl-4-sulfonic acid (2-piperazin-1-yl-5-trifluoromethyl-phenyl)-amide]
The Ki of the first is higher: 3 to 30 µM for the first, < 3 µM for the second.

First: CC(NC(=O)C1CNCCC1c1ccc(-c2ccccc2)cc1)c1cccc2ccccc12 (stereo not drawn) [Compound 404]
Second: O=C(Nc1ccc2ccccc2c1)C1CNCCc2c1[nH]c1ccccc21 (stereo not drawn) [Compound 202, 1,2,3,4,5,6-Hexahydro-azepino[4,5-b]indole-5-carboxylic acid naphthalen-2-ylamide]
The Ki of the first is lower: 3 to 30 µM for the first, > 30 µM for the second.

`O=C(OCc1cc(C2=CCNCC2)c(COc2ccccc2C(F)(F)F)cc1-c1ccoc1)c1ccncc1` [Compound 390, Isonicotinic acid 2-furan-3-yl-5-(1,2,3,6-tetrahydro-pyridin-4-yl)-4-(2-trifluoromethyl-phenoxymethyl)-benzyl ester] and `O=C(OCc1cc(C2=CCNCC2)c(COc2ccccc2C(F)(F)F)cc1-c1ccoc1)c1cccnc1` [Compound 385, Nicotinic acid 2-furan-3-yl-5-(1,2,3,6-tetrahydro-pyridin-4-yl)-4-(2-trifluoromethyl-phenoxymethyl)-benzyl ester] cannot be ordered by Ki: < 3 µM for the first, < 3 µM for the second.

First: C1=C(c2cnc(OCc3ccccc3)nc2OCc2ccccc2)CCNC1 [Compound 210, 2,4-Bis-benzyloxy-5-(1,2,3,6-tetrahydro-pyridin-4-yl)-pyrimidine]
Second: N#Cc1ccccc1-c1ccc(COc2ccc3c(c2)c2c(n3C(=O)c3cccc4ccccc34)CNCC2)cc1 [Compound 532, 4′-[9-(Naphthalene-1-carbonyl)-2,3,4,9-tetrahydro-1H-b-carbolin-6-yloxymethyl]-biphenyl-2-carbonitrile]
The Ki of the first is higher: 3 to 30 µM for the first, < 3 µM for the second. The second binds more tightly here.

First: O=C(Nc1ccc(-c2ccc(Cl)c(Cl)c2)cc1N1CCNCC1)c1cccc2ccccc12 [Compound 173, Naphthalene-1-carboxylic acid (3′,4′-dichloro-3-piperazin-1-yl-biphenyl-4-yl)-amide]
Second: O=C(Nc1cc(Oc2ccc(Cl)cc2)ccc1N1CCNCC1)c1cccc2ccccc12 [Compound 133, Naphthalene-1-carboxylic acid [5-(4-chloro-phenoxy)-2-piperazin-1-yl-phenyl]-amide]
The Ki of the first is lower: < 3 µM for the first, 3 to 30 µM for the second. The first binds more tightly here.

`O=C(c1cccc2ccccc12)n1c2c(c3cc(OCc4ccc(OC(F)F)cc4)ccc31)CCNC2` [Compound 514, [6-(4-Difluoromethoxy-benzyloxy)-1,2,3,4-tetrahydro-b-carbolin-9-yl]-naphthalen-1-yl-methanone] and `FC(F)(F)c1ccc(-c2ccc(N3CCNCC3)c(NCc3ccc4ccccc4c3)c2)cc1` [Compound 166, Naphthalen-2-ylmethyl-(4-piperazin-1-yl-4′-trifluoromethyl-biphenyl-3-yl)-amine] cannot be ordered by Ki: < 3 µM for the first, < 3 µM for the second.

`O=C(NC(Cc1ccccc1)C(=O)N1CCCC1C(=O)NCC1CNCCC1c1ccc(COc2ccccc2C(F)(F)F)cc1)OCc1ccccc1` (stereo not drawn) [Compound 223, {1-Benzyl-2-oxo-2-[2-({4-[4-(2-trifluoromethyl-phenoxymethyl)-phenyl]-piperidin-3-ylmethyl}-carbamoyl)-pyrrolidin-1-yl]-ethyl}-carbamic acid benzyl ester] and `O=S(=O)(Nc1cc(-c2ccc(Cl)c(Cl)c2)ccc1N1CCNCC1)c1ccc(-c2ccc(Cl)cc2)cc1` [Compound 181, 4′-Chloro-biphenyl-4-sulfonic acid (3′,4′-dichloro-4-piperazin-1-yl-biphenyl-3-yl)-amide] fall in the same range of Ki: 3 to 30 µM for the first, 3 to 30 µM for the second.
